Measurements reported in patent US6569847B1, “Substituted azetidin-2-ones as cysteine protease inhibitors” (NAEJA Pharmaceuticals Inc., priority 1999, dated 2003).

Assays:
[1] = target: Cathepsin L (Homo sapiens, UniProt P07711); assay: Assay Procedure for Cathepsin L (fluorogenic substrate N-CBZ-Phe-Arg-AMC); type: biochemical; details: r Cathepsin L, pH 5.0, 10 min preincubation; read-out: CatL IC50
Experimental: Assay Procedure for Cathepsin L
To 170 μl of an enzyme-buffer mixture (enzyme: r Cathepsin L, diluted to give 25 F units/min, buffer: 58.8 mM Na citrate, 1.18 mM EDTA, 235 mM sodium chloride, 10 mM DTT, pH 5.0), 10 μl of an inhibitor (dissolved in 100% DMSO ) was added.
After 10 min of incubation at room temperature 20 μl of 1 mM substrate (N-CBZ-Phe-Arg-AMC) dissolved in DMSO was added to initiate the reaction. Reading was for 10 min at the Fluoroscan reader (excitation at 380 nm, emission at 460 nm).
(§1) A plot of percentage of inhibition vs inhibitor concentration is obtained, and the IC50 is determined using a linear regression calculation (concentration of inhibitor which will give 50% inhibition).

[2] = target: Cathepsin S (Homo sapiens, UniProt P25774); assay: Assay Procedure for Cathepsin S (fluorogenic substrate CBZ-Val-Val-Arg-AMC); type: biochemical; details: r Cathepsin S, pH 6.5, 10 min preincubation; read-out: CatS IC50
Sequence of Cathepsin S (P25774 115-331, species assumed): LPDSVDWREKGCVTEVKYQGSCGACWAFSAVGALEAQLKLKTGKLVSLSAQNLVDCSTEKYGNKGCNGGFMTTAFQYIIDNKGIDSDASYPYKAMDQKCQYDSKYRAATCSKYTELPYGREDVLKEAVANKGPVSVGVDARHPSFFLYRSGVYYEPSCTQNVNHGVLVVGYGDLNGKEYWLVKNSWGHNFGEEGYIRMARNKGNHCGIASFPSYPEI
Experimental: Assay Procedure for Cathepsin S
To 170 μl of enzyme-buffer mixture (r Cathepsin S diluted to give approx. 30 F unis/min, buffer: 100 mM sodium phosphate, 1 mM EDTA, 5 mM DTT ,0.01% Brij, pH 6.5.), 10 μl of inhibitor (dissolved in 100% DMSO) was added.
After 10 min of incubation at room temperature 20 μl of 1.2 mM substrate (CBZ-Val-Val-Arg-AMC, dissolved in DMSO) was added to initiate reaction. Reading is followed for 10 min at the Fluoroscan II plate reader (excitation at 380 nm, emission at 460 nm).
as §1

[3] = target: T1, Cathepsin K (Homo sapiens, UniProt P43235); assay: Assay Procedure for Cathepsin K (fluorogenic substrate N-CBZ-Phe-Arg-AMC); type: biochemical; details: r Cathepsin K, pH 5.5, 10 min preincubation; read-out: CatK IC50
T1 sequence (P43235 115-329): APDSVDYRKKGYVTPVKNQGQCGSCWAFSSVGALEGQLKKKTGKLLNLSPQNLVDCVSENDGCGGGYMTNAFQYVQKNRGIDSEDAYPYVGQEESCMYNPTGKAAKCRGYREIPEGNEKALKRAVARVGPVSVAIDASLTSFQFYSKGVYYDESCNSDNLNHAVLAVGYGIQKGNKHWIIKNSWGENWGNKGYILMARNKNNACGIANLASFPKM
Experimental: Assay Procedure for Cathepsin K
To 170 μl of enzyme-buffer mixture (r Cathepsin K diluted to give approx. 30 F units/min. Buffer: 100 mM sodium acetate, 5 mM EDTA, 20 mM L-Cysteine, 0.01% Brij , pH 5.5), 10 μl of inhibitor (dissolved in 100% DMSO) was added.
After 10 min of incubation at room temperature 20 μl of 2.7 mM substrate (N-CBZ-Phe-Arg-AMC, dissolved in DMSO) was added to initiate reaction. Reading is followed for 10 min at the Fluoroscan II plate reader (excitation at 380 nm, emission at 460 nm).
as §1

[4] = target: Cathepsin B (Homo sapiens, UniProt P07858); assay: Assay Procedure for Cathepsin B (fluorogenic substrate N-CBZ-Phe-Arg-AMC); type: biochemical; details: r Cathepsin B, pH 5.1, 10 min preincubation; read-out: CatB IC50
Experimental: Assay Procedure for Cathepsin B
To 170 μl of enzyme-buffer mixture (r Cathepsin B diluted to give approx. 30 F units/min, buffer: 56 mM Na acetate, 1.124 mM EDTA, 10 mM DTT, pH 5.1), 10 μl of inhibitor (dissolved in 100% DMSO ) was added.
After 10 min of incubation at mom temperature 20 μl of 5 mM substrate (N-CBZ-Phe-Arg-AMC, dissolved in DMSO ) was added to initiate reaction. Reading is followed for 10 min at the Fluoroscan reader (excitation at 380 nm, emission at 460 nm).
as §1

Sequence of Cathepsin L (P07711 114-333, species assumed): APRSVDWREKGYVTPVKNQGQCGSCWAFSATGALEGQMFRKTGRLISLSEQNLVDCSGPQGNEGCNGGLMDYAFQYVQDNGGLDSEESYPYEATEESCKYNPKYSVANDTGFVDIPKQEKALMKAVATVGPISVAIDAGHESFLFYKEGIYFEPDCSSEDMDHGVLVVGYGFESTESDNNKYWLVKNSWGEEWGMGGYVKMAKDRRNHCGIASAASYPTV

SMILES | IC50 [1] [nM] | IC50 [2] [nM] | IC50 [3] [µM] | melting point [°C] | IC50 [4] [µM]
CC(=O)O[C@@H]1NC(=O)[C@@]1(C)NC(=O)[C@H](Cc1ccccc1)NC(=O)CCc1ccccc1 [Example 4, (3S,4S)-3-[2S-2-(3-phenylpropionyl)-amino-2-benzyl]-acetamido-3-methyl-4-acetoxy azetidine-2-one] | 1910 | 98 | 1.14 | 163 to 164 | 10
C[C@@]1(NC(=O)[C@H](CC2CCCCC2)NC(=O)CCCCCNC(=NC(=O)OCc2ccccc2)NC(=O)OCc2ccccc2)C(=O)N[C@H]1Oc1ccccc1 [Example 7, (3S,4S)-3-[2S-2-(6-N, N-dibenzyloxycarbonylguanidinohexanoyl)-amino-2-cyclohexylmethyl]-acetamido-3-methyl-4-phenoxy-azetidine-2-one] | 32500 | 20 | 32.5 |  | 26.2
CC(C)(C)OC(=O)N[C@@H](Cc1cccnc1)C(=O)N[C@]1(C)C(=O)N[C@H]1Oc1ccccc1 [Example 12] | 2270 | 1800 | 7.74 | 109 to 110 | 11.3
CC(C)(C)OC(=O)N[C@@H](Cc1cccnc1)C(=O)N[C@]1(C)C(=O)N[C@@H]1Oc1ccccc1 [Example 14] | 450 | 50 | 1.34 |  | 0.36
C[C@@]1(NC(=O)[C@H](Cc2ccccc2)NC(=O)CCc2ccccc2)C(=O)N[C@H]1Oc1cccc(C(=O)OC(c2ccccc2)c2ccccc2)c1 [Example 18, (3S,4S)-3-[2S-2-(3-phenylpropionyl)-amino-2-benzyl]-acetamido-3-methyl-4-(3-diphenylmethoxycarbonyl)-phenoxy azetidine-2-one] | 7330 | 690 | 7.3 |  | > 36.6
